Measurements reported in the NIST ThermoML archive (doi:10.1021/je060291c).
Values joined by “and” are separate entries in the source; they are usually repeats but may differ in a detail not shown here. Identical values can stand only once. ± gives the expanded uncertainty stated by the source.

Assay: wn = mass fraction of the nth substance listed
Details: Liquid, Pulse-echo method, w2 = 0.49

CC(F)(F)F [1,1,1-trifluoroethane] + FC(F)C(F)(F)F
speed of sound
Details	253.22 K	258.15 K	265.62 K	273.14 K	280.7 K	288.18 K
940 kPa	–	–	–	500.1 ± 1.3 m/s	–	–
1010 kPa	–	–	–	500.9 ± 1.3 m/s	–	–
1130 kPa	–	–	–	502.3 ± 1.3 m/s	–	427.1 ± 1.3 m/s
1140 kPa	–	–	–	–	465.9 ± 1.3 m/s	–
1150 kPa	–	574.9 ± 1.3 m/s	–	–	–	–
1160 kPa	598.8 ± 1.3 m/s	–	–	–	466.2 ± 1.3 m/s	–
1170 kPa	–	575.3 ± 1.3 m/s	539.5 ± 1.3 m/s	–	–	–
1190 kPa	–	575.7 ± 1.3 m/s	–	–	–	428.3 ± 1.3 m/s
1210 kPa	–	–	540.1 ± 1.3 m/s	–	466.5 ± 1.3 m/s	–
1260 kPa	599.7 ± 1.3 m/s	576.3 ± 1.3 m/s	540.5 ± 1.3 m/s	503.8 ± 1.3 m/s	467.5 ± 1.3 m/s	429.1 ± 1.3 m/s
1380 kPa	600.9 ± 1.3 m/s	577.6 ± 1.3 m/s	541.7 ± 1.3 m/s	505.3 ± 1.3 m/s	469.1 ± 1.3 m/s	–
1500 kPa	602 ± 1.3 m/s	578.8 ± 1.3 m/s	543 ± 1.3 m/s	506.6 ± 1.3 m/s	471 ± 1.3 m/s	432.9 ± 1.3 m/s
1630 kPa	603.1 ± 1.3 m/s	580 ± 1.3 m/s	544.3 ± 1.3 m/s	508.1 ± 1.3 m/s	472.4 ± 1.3 m/s	434.9 ± 1.3 m/s
1750 kPa	604.2 ± 1.3 m/s	581.2 ± 1.3 m/s	545.7 ± 1.3 m/s	509.5 ± 1.3 m/s	473.9 ± 1.3 m/s	436.7 ± 1.3 m/s and 436.6 ± 1.3 m/s
2010 kPa	606.4 ± 1.3 m/s	583.4 ± 1.3 m/s	548.3 ± 1.3 m/s	512.5 ± 1.3 m/s	477.2 ± 1.3 m/s	–
2250 kPa	608.7 ± 1.3 m/s	585.8 ± 1.3 m/s	550.8 ± 1.3 m/s	515.3 ± 1.3 m/s	480.2 ± 1.3 m/s	–
2510 kPa	610.9 ± 1.3 m/s	588.1 ± 1.3 m/s	553.3 ± 1.3 m/s	518.1 ± 1.3 m/s	483.5 ± 1.3 m/s	–
2750 kPa	613.1 ± 1.3 m/s	590.3 ± 1.3 m/s	555.9 ± 1.3 m/s	520.9 ± 1.3 m/s	486.6 ± 1.3 m/s	–
3010 kPa	615.1 ± 1.3 m/s	592.6 ± 1.3 m/s	558.4 ± 1.3 m/s	523.7 ± 1.3 m/s	489.8 ± 1.3 m/s	–
3500 kPa	619.3 ± 1.3 m/s	597.1 ± 1.3 m/s	563.3 ± 1.3 m/s	529.2 ± 1.3 m/s	495.6 ± 1.3 m/s	–
4000 kPa	623.7 ± 1.3 m/s	601.5 ± 1.3 m/s	568.3 ± 1.3 m/s	534.4 ± 1.3 m/s	501.4 ± 1.3 m/s	–
4500 kPa	627.9 ± 1.3 m/s	606.1 ± 1.3 m/s	572.9 ± 1.3 m/s	539.5 ± 1.3 m/s	507.2 ± 1.3 m/s	–
5000 kPa	631.9 ± 1.3 m/s	610.4 ± 1.3 m/s	577.7 ± 1.3 m/s	544.6 ± 1.3 m/s	512.8 ± 1.3 m/s	–
6010 kPa	639.9 ± 1.3 m/s	618.6 ± 1.3 m/s	586.7 ± 1.3 m/s	554.2 ± 1.3 m/s	523.3 ± 1.3 m/s	–
7010 kPa	647.5 ± 1.3 m/s	626.7 ± 1.3 m/s	595.3 ± 1.3 m/s	563.6 ± 1.3 m/s	533.5 ± 1.3 m/s	–
8000 kPa	655.1 ± 1.3 m/s	634.7 ± 1.3 m/s	603.7 ± 1.3 m/s	572.9 ± 1.3 m/s	543.1 ± 1.3 m/s	–
9000 kPa	662.6 ± 1.3 m/s	642.2 ± 1.3 m/s	612.1 ± 1.3 m/s	581.6 ± 1.3 m/s	552.7 ± 1.3 m/s	–
10000 kPa	669.8 ± 1.3 m/s	649.7 ± 1.3 m/s	620.3 ± 1.3 m/s	590.2 ± 1.3 m/s	561.9 ± 1.3 m/s	–
12000 kPa	683.6 ± 1.3 m/s	664 ± 1.3 m/s	635.3 ± 1.3 m/s	606.5 ± 1.3 m/s	579.4 ± 1.3 m/s	–
14000 kPa	697 ± 1.3 m/s	677.9 ± 1.3 m/s	649.8 ± 1.3 m/s	622 ± 1.3 m/s	595.5 ± 1.3 m/s	–
16010 kPa	709.7 ± 1.3 m/s	691.3 ± 1.3 m/s	663.9 ± 1.3 m/s	636.6 ± 1.3 m/s	611 ± 1.3 m/s	–
18000 kPa	722.2 ± 1.3 m/s	704.1 ± 1.3 m/s	677.1 ± 1.3 m/s	650.5 ± 1.3 m/s	625.4 ± 1.3 m/s	–
20000 kPa	734.3 ± 1.3 m/s	716.5 ± 1.3 m/s	690.1 ± 1.3 m/s	663.8 ± 1.3 m/s	639.5 ± 1.3 m/s	–
23000 kPa	751.6 ± 1.3 m/s	734.2 ± 1.3 m/s	708.2 ± 1.3 m/s	683.2 ± 1.3 m/s	659.6 ± 1.3 m/s	–
26000 kPa	768.1 ± 1.3 m/s	751.1 ± 1.3 m/s	725.7 ± 1.3 m/s	701.6 ± 1.3 m/s	678.2 ± 1.3 m/s	–
29010 kPa	783.7 ± 1.3 m/s	767.3 ± 1.3 m/s	742.6 ± 1.3 m/s	718.9 ± 1.3 m/s	696.3 ± 1.3 m/s	–
32000 kPa	798.4 ± 1.3 m/s	782.5 ± 1.3 m/s	758.5 ± 1.3 m/s	735.3 ± 1.3 m/s	713.7 ± 1.3 m/s	–
35000 kPa	812.8 ± 1.3 m/s	797.1 ± 1.3 m/s	773.9 ± 1.3 m/s	751.1 ± 1.3 m/s	729.9 ± 1.3 m/s	–
40000 kPa	835.8 ± 1.3 m/s	820.8 ± 1.3 m/s	798.3 ± 1.3 m/s	775.8 ± 1.3 m/s	755.3 ± 1.3 m/s	–
45000 kPa	857.8 ± 1.3 m/s	843.3 ± 1.3 m/s	821.3 ± 1.3 m/s	799.7 ± 1.3 m/s	779.7 ± 1.3 m/s	–
50000 kPa	878.9 ± 1.3 m/s	864.3 ± 1.3 m/s	843.1 ± 1.3 m/s	822 ± 1.3 m/s	802.7 ± 1.3 m/s	–
55000 kPa	899 ± 1.3 m/s	884.5 ± 1.3 m/s	863.8 ± 1.3 m/s	843.4 ± 1.3 m/s	824.2 ± 1.3 m/s	–
60000 kPa	918.8 ± 1.3 m/s	904.1 ± 1.3 m/s	883.7 ± 1.3 m/s	863.4 ± 1.3 m/s	845.1 ± 1.3 m/s	–
65000 kPa	937.2 ± 1.3 m/s	923.1 ± 1.3 m/s	902.8 ± 1.3 m/s	882.8 ± 1.3 m/s	864.9 ± 1.3 m/s	–
